Data taken from patent US11414379B2, “SPAK kinase inhibitors as neuroprotective agents” (United States Government as represented by the Department …, priority 2018, dated 2022).

Tests used:
GST-[T233E]SPAK kinase = biological target: T1, GST-[T233E]SPAK kinase (Homo sapiens, UniProt Q9UEW8, T231E); assay: SPAK kinase assay employing CATCHtide; assay type: biochemical
T1 construct: made in house; host or cells: E. coli
Description: SPAK kinase assays employing CATCHtide (cation chloride co-transporter peptide substrate). Peptide kinase assays, performed in triplicate, were set up in a total volume of 50 μl containing 0.5 μg GST-[T233E]SPAK kinase (˜5 nM at ˜10% purity) in 50 mM Tris/HCl, pH 7.5, 0.1 mM EGTA, 10 mM MgCl2, 300 μM CATCHtide ([…]; SEQ ID NO:1), […] [γ-32P]ATP (˜500 cpm/pmol) and the indicated concentrations of inhibitor dissolved in DMSO. After incubation for 30 min at 30° C., reactions were terminated by spotting 40 μl of the reaction mix onto P81 phosphocellulose paper and immersion in 50 mM phosphoric acid. The papers were washed extensively and the incorporation of [γ-^32P]ATP into CATCHtide was quantified by Cerenkov counting. IC^50 values were calculated with GraphPad Prism using non-linear regression analysis.
Referring to FIG. 7A, the activation of SPAK kinase by MO25α is shown. SPAK was assayed in the absence or presence of five-fold molar excess of wild-type MO25α.
Referring to FIG. 7B, kinetic data was determined for ZT-1a in the absence or presence of five-fold molar excess of wild-type MO25α. Data points are the average of three determinations, and the error bars are +/−SEM.

[1] = test system: Ang II-mediated hypertensive mice, pdMCAO; assay: Neurological function tests in HTN mice after pdMCAO; assay type: in vivo, mouse; conditions: male HTN mice; 1-14 days post-pdMCAO
Description: Foot fault, cylinder test, and adhesive tape removal tests were used to assess pdMCAO-induced somatosensory and motor deficits in HTN mice in a blinded manner as described previously (Bhuiyan et al. (2017)J Cereb Blood Flow Metab. 37:2780-2794; Begum et al. (2018) Glia. 66).
Cylinder test: Mice are placed in a transparent cylinder (9 cm in diameter and 15 cm in height) for 10 min and all the forelimb movements of the mice will be recorded. Forepaw (left/right/both) usage on initial contact against the cylinder wall after rearing and during lateral exploration will be recorded. Prior to ischemic stroke, animals were placed in the cylinder for 5 min to establish a baseline symmetry profile.
Foot fault test: Each mouse will be placed on a stainless-steel grid floor (20 cm×40 cm with a mesh size of 4 cm^2) elevated 1 m above the floor. […] Data will be expressed as the number of foot fault errors made by the forelimbs contralateral to the injury hemisphere as a percentage of total steps.
Adhesive contact and removal tests: A piece of adhesive tape (4 mm×3 mm) will be attached to the contralateral forepaw with equal pressure by the experimenter in each trial. The time to make first contact with the tape and the time to remove the tape will be recorded as the contact time and the removal time, respectively. […]

SPAK-WNK1 interaction = biological target: T2, SPAK-WNK1 interaction (Homo sapiens, UniProt Q9UEW8); assay: Co-immunoprecipitation of WNK1 with SPAK from HEK293 cell lysates; assay type: binding; conditions: 30 min on ice
T2 construct: Non-transfected HEK293 cell lysates; endogenous in cells; host or cells: HEK293 (non-transfected) lysate
Description: Referring to FIG. 6, evidence that SPAK associates with WNK1, and interaction is disrupted by SPAK CCT mutation is shown. […] Immunoprecipitates were subjected to immunoblot probed with antibody to total WNK1 and antibody to total SPAK.

[2] = test system: KCCs sites-1/2 (KCC2 Thr906/1007 or KCC3 Thr991/1048) phosphorylation; assay: Phosphorylation immunoblot in HEK293 cells; assay type: cell-based, human; conditions: only at this concentration
Description: HEK293 (human embryonic kidney 293) cells were cultured on 10-cm-diameter dishes in DMEM supplemented with 10% (v/v) foetal bovine serum, 2 mM L-glutamine, 100 U/ml penicillin and 0.1 mg/ml streptomycin. HEK293 cells were transfected with a mixture of 20 μl of 1 mg/ml polyethylenimine (Polysciences) and 5-10 μg of plasmid DNA as described previously (Durocher et al., 2002). 36 hours post-transfection cells were stimulated with either control isotonic or hypotonic medium for a period of 30 minutes. Cells were lysed in 0.3 mL of ice-cold lysis buffer/dish, lysates were clarified by centrifugation at 4° C. for 15 minutes at 26,000 g and the supernatant aliquots were frozen in liquid nitrogen and stored at −20° C. Protein concentrations were determined using the Bradford method. Cells were treated with the indicated concentrations of the SPAK/OSR1 inhibitors. […]
The membranes were incubated for 30 min with TBST (Tris-buffered saline, 0.05% Tween-20) containing 5% (w/v) skim milk. […] After repeating the washing steps, signals were detected with enhanced chemiluminescence reagent. […] The densities of bands were measured with ImageJ. […]
HEK293 cells were transfected with a DNA construct encoding wild type N-terminally FLAG-tagged KCC2. […] See FIG. 3 for Western blot quantitation. […]

| SMILES | change of IC50 values by addition of MO25α (GST-[T233E]SPAK kinase) | change of IC50 values with increasing ATP concentrations (GST-[T233E]SPAK kinase; SPAK activity at different ATP concentrations) | IC50 (GST-[T233E]SPAK kinase; absence of wild-type MO25α) | IC50 (GST-[T233E]SPAK kinase; presence of five-fold molar excess of wild-type MO25α) | foot fault, cylinder and adhesive tape removal tests [1] | co-immunoprecipitation of WNK1 with SPAK (SPAK-WNK1 interaction) | concentration at which phosphorylation of KCCs site-1 was significantly inhibited [2] |
| --- | --- | --- | --- | --- | --- | --- | --- |
| Cc1cc(C(C#N)c2ccc(Cl)cc2)c(Cl)cc1NC(=O)c1cc(Cl)ccc1O (stereo not shown) [ZT-1a, 5-chloro-N-(5-chloro-4-((4-chlorophenyl)(cyano)methyl)-2-methylphenyl)-2-hydroxy-benzamide] | not significantly altered | unchanged | 40.5 µM | 41.3 µM | less foot faults, less unilateral turns and better performance in adhesive tape removal | potently abolished | – |
| Cc1cc(C(C#N)c2ccc(Cl)cc2)c(Cl)cc1NC(=O)c1cc(I)cc(I)c1O (stereo not shown) [Closantel] | – | – | – | – | – | – | 10 µM |
